According to ChEMBL document CHEMBL1201862, “PubChem BioAssay data set” (2004):
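Interpolation was linear, between the two tested concentrations surrounding the appropriate level; five concentrations were tested over 48 hours in 96-well plates. Here, GI50 denotes the concentration required for 50% inhibition of growth.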 The source made the active and inactive calls. Cut-off read from the data, not from the text of the source: active = GI50 up to about 1.1 µM and inactive = higher.

Key:
Assay in all cases: NCI anticancer screen, dose series, 48 h
[1] = tested on: ACHN
[2] = tested on: BT-549
[3] = tested on: CAKI-1
[4] = tested on: DU-145
[5] = tested on: HCC 2998
[6] = tested on: HOP-92
[7] = tested on: KM12
[8] = tested on: MCF7
[9] = tested on: MOLT-4
[10] = tested on: OVCAR-4
[11] = tested on: RPMI-8226
[12] = tested on: SK-MEL-2
[13] = tested on: SK-MEL-5
[14] = tested on: SNB-19
[15] = tested on: SNB-75
[16] = tested on: SW-620
[17] = tested on: U-251
[18] = tested on: UACC-257
[19] = tested on: UO-31

Row | SMILES | GI50 [1] | GI50 [2] | GI50 [3] | GI50 [4] | GI50 [5] | GI50 [6] | GI50 [7] | GI50 [8] | GI50 [9] | GI50 [10] | GI50 [11] | GI50 [12] | GI50 [13] | GI50 [14] | GI50 [15] | GI50 [16] | GI50 [17] | GI50 [18] | GI50 [19]
1 | COC(=O)C1=C(OC)[C@H]2C#C/C=C\C#C[C@@H]3Nc4c(cc(O)c5c4C(=O)c4ccccc4C5=O)[C@]24O[C@@]34[C@H]1C | < 0.01 µM (active) | < 0.01 µM (active) | < 0.01 µM (active) | < 0.01 µM (active) | < 0.01 µM (active) | < 0.01 µM (active) | < 0.01 µM (active) | < 0.01 µM (active) | < 0.01 µM (active) | 0.0519 µM (active) | < 0.01 µM (active) | 0.0585 µM (active) | < 0.01 µM (active) | < 0.01 µM (active) | < 0.01 µM (active) | < 0.01 µM (active) | < 0.01 µM (active) | < 0.01 µM (active) | < 0.01 µM (active)
2 | CS(=O)(=O)OCCN(CCOS(C)(=O)=O)c1ccc(/C=N/c2cccc(Cl)c2)cc1 | 0.181 µM (active) | 9.98 µM (inactive) | 0.239 µM (active) | 1.27 µM (inactive) | 2.7 µM (inactive) | 23.8 µM (inactive) | 13.4 µM (inactive) | 10 µM (inactive) | 0.286 µM (active) | 13.5 µM (inactive) | 3.85 µM (inactive) | 23.8 µM (inactive) | 6.43 µM (inactive) | 5.46 µM (inactive) | 2.11 µM (inactive) | 12.8 µM (inactive) | 3.72 µM (inactive) | 2.84 µM (inactive) | 1.6 µM (inactive)
3 | CC(=O)Nc1ccc2c(C)c3c(nc2n1)[nH]c1ccccc13 | 17.8 µM (inactive) | 31.9 µM (inactive) | 24 µM (inactive) | 33.6 µM (inactive) | 33 µM (inactive) | 20.4 µM (inactive) | 21.9 µM (inactive) | 19.2 µM (inactive) | 19.7 µM (inactive) | 38.7 µM (inactive) | 27.2 µM (inactive) | 22.6 µM (inactive) | 14.9 µM (inactive) |  | 22.1 µM (inactive) | 37.1 µM (inactive) | 32.4 µM (inactive) | 32.9 µM (inactive) | 24.5 µM (inactive)
4 | COc1ccc(C(O)CNC(=O)c2ccccc2)cc1 (stereo not given) | > 100 µM (inactive) | > 100 µM (inactive) | > 100 µM (inactive) | > 100 µM (inactive) | > 100 µM (inactive) | > 100 µM (inactive) | > 100 µM (inactive) | > 100 µM (inactive) | > 100 µM (inactive) | > 100 µM (inactive) | > 100 µM (inactive) | > 100 µM (inactive) | > 100 µM (inactive) | > 100 µM (inactive) | > 100 µM (inactive) | > 100 µM (inactive) | > 100 µM (inactive) | > 100 µM (inactive) | 
5 | CN(C)c1ccc(C2SCC(=O)N2c2ccc(Oc3ccc(Cl)cc3)c(Cl)c2)cc1 (stereo not given) | 29.7 µM (inactive) | 17 µM (inactive) | 32.4 µM (inactive) | 16.7 µM (inactive) | 22.3 µM (inactive) | 21.8 µM (inactive) | 20.3 µM (inactive) | 37.2 µM (inactive) | 27.8 µM (inactive) | 22.9 µM (inactive) | 15.2 µM (inactive) | 20.4 µM (inactive) | 19.1 µM (inactive) | 20.3 µM (inactive) | 17.6 µM (inactive) | 29.4 µM (inactive) | 20.5 µM (inactive) | 36.6 µM (inactive) | 11.6 µM (inactive)
6 | O=C1CCC2C(O)c3cc4c(cc3C(c3ccc5c(c3)OCO5)N12)OCO4 (stereo not given) | > 100 µM (inactive) | 47.6 µM (inactive) | > 100 µM (inactive) | > 100 µM (inactive) | > 100 µM (inactive) | 35.2 µM (inactive) | > 100 µM (inactive) | > 100 µM (inactive) | > 100 µM (inactive) | > 100 µM (inactive) | > 100 µM (inactive) | > 100 µM (inactive) | > 100 µM (inactive) | 29.2 µM (inactive) | 16.3 µM (inactive) | > 100 µM (inactive) | 26.1 µM (inactive) | > 100 µM (inactive) | 59.7 µM (inactive)
7 | O=C1OC(c2ccc(O)c(Cl)c2)(c2ccc(O)c(Cl)c2)c2ccc(Br)c3cccc1c23.O=C1OC(c2ccc(O)c(Cl)c2)(c2ccc(O)c(Cl)c2)c2cccc3c(Br)ccc1c23 |  | 21.5 µM (inactive) | 14.1 µM (inactive) | 23.7 µM (inactive) | 19.3 µM (inactive) | 9.53 µM (inactive) | 24.1 µM (inactive) | 15.2 µM (inactive) | 16.3 µM (inactive) | 2.67 µM (inactive) | 16.9 µM (inactive) | 19.6 µM (inactive) | 17.5 µM (inactive) | 23.1 µM (inactive) | 22.5 µM (inactive) | 23.9 µM (inactive) | 20.1 µM (inactive) | 19.5 µM (inactive) | 19.4 µM (inactive)
